Experimental data from patent publication US8846704B2, “Thiopyrimidine-based compounds and uses thereof” (YM Biosciences Austraila Pty Ltd, priority 2007, dated 2014).

These compounds were tested against T1, Bmx(h) (Homo sapiens, UniProt P51813) (assay: Upstate KinaseProfiler enzyme assay, Bmx). Settings: 500 nM compound; read-out: Percent inhibition at 500 nM Bmx(h).
T1 construct: purchased Upstate Biotechnology (Dundee, UK), KinaseProfiler service
T1 sequence (P51813 1-675): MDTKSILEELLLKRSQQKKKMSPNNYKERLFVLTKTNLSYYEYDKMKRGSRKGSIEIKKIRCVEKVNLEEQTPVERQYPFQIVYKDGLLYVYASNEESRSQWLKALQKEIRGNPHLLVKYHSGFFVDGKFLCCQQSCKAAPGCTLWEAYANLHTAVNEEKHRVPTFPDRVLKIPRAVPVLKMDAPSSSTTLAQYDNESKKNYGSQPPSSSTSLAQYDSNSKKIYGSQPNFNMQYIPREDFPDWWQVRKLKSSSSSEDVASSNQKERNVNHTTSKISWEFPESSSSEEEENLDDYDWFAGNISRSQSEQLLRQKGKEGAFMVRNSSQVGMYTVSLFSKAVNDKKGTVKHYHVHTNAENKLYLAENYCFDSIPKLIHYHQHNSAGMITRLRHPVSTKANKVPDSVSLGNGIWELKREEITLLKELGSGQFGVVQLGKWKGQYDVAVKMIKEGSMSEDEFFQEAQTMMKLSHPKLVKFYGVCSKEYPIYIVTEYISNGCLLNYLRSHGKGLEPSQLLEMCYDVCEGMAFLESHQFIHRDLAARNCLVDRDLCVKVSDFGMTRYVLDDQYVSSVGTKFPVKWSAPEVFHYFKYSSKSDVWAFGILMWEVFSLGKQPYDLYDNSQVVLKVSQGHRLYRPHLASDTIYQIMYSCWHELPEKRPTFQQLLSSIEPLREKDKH
Format: biochemical
Procedure: Further enzyme assays were conducted at Upstate Biotechnology (Dundee, UK) in the KinaseProfiler™ Assay system.
The general protocol is as follows. All kinases are pre-diluted to a 10× working concentration prior to addition into the assay. The composition of the dilution buffer for the kinases is 20 mM MOPS pH 7.0, 1 mM EDTA, 0.1% β-mercaptoethanol, 0.01% Brij-35, 5% glycerol, 1 mg/ml BSA. All substrates are dissolved and diluted to working stocks in de-ionised water.
With `C=CC(=O)Nc1ccc(Sc2nc(Nc3cccc(N4CCN(C)CC4)c3)ncc2C)cc1` [Compound 243, N-(4-(5-methyl-2-(3-(4-methylpiperazin-1-yl)phenylao)pyrimidin-4-ylthio)phenyl)acrylamide] the inhibition at 0.5 µM was 96%.
For `C=CC(=O)Nc1ccc(Sc2nc(Nc3ccc(N4CCC(CO)CC4)cc3)ncc2C)cc1` [Compound 286, N-(4-(2-(4-(4-(hydroxymethyl)piperidin-1-yl)phenylao)-5-methylpyrimidin-4-ylthio)phenyl)acrylamide], the inhibition at 0.5 µM was 95%.
`C=CC(=O)Nc1ccc(Sc2nc(Nc3ccc(OCCCN(CC)CC)cc3)ncc2C)cc1` [Compound 291, N-(4-(2-(4-(3-(diethylao)propoxy)phenylao)-5-methylpyrimidin-4-ylthio)phenyl)acrylamide] showed an inhibition at 0.5 µM of 99%.
Work on `C=CC(=O)Nc1ccc(Sc2nc(Nc3ccc(OCCN4CCOCC4)cc3)ncc2C)cc1` [Compound 290, N-(4-(5-methyl-2-(4-(2-morpholinoethoxy)phenylao)pyrimidin-4-ylthio)phenyl)acrylamide] yielded an inhibition at 0.5 µM of 97%.
In the case of `Cc1cc(N)ccc1Sc1nc(Nc2ccc(N3CCOCC3)cc2)ncc1C` [Compound 162, 4-(4-ao-2-methylphenylthio)-5-methyl-N-(4-morpholinophenyl)pyrimidin-2-ae], the inhibition at 0.5 µM is reported as 55%.
For `C=CC(=O)Nc1ccc(Sc2nc(Nc3cccc(CO)c3)ncc2C)cc1` [Compound 280, N-(4-(2-(3-(hydroxymethyl)phenylao)-5-methylpyrimidin-4-ylthio)phenyl)acrylamide], the inhibition at 0.5 µM was 98%.
`C=CC(=O)Nc1ccc(Sc2nc(Nc3ccc(OC)c(NS(C)(=O)=O)c3)ncc2C)cc1` [Compound 293, N-(4-(2-(4-methoxy-3-(methylsulfonamido)phenylao)-5-methylpyrimidin-4-ylthio)phenyl)acrylamide] gave an inhibition at 0.5 µM of 79%.
Compound `C=CC(=O)Nc1ccc(Sc2ccnc(Nc3ccc(N4CCOCC4)cc3)n2)cc1` [Compound 25, N-(4-(2-(4-morpholinophenylamino)pyrimidin-4-ylthio)phenyl)acrylamide] has an inhibition at 0.5 µM of 97%.
Compound `Cc1cnc(Nc2ccc(N3CCOCC3)cc2)nc1Sc1c(C)cc(N)cc1C` [Compound 165, 4-(4-ao-2,6-dimethylphenylthio)-5-methyl-N-(4-morpholinophenyl)pyrimidin-2-ae] has an inhibition at 0.5 µM of 40%.
With `N#Cc1ncn(Cc2ccc(Sc3ccnc(Nc4ccc(N5CCOCC5)cc4)n3)cc2)c1C#N` [Compound 201, 1-(4-(2-(4-morpholinophenylao)pyrimidin-4-ylthio)benzyl)-1H-imidazole-4,5-dicarbonitrile] the inhibition at 0.5 µM was 100%.
Compound `C=CC(=O)Nc1ccc(Sc2ccnc(Nc3ccc(N4CCN(C)CC4)cc3)n2)cc1` [Compound 238, N-(4-(2-(4-(4-methylpiperazin-1-yl)phenylao)pyrimidin-4-ylthio)phenyl)acrylamide] has an inhibition at 0.5 µM of 90%.
For `CC#CC(=O)Nc1ccc(Sc2ccnc(Nc3cccc(N4CCOCC4)c3)n2)cc1` [Compound 233, N-(4-(2-(3-morpholinophenylao)pyrimidin-4-ylthio)phenyl)but-2-ynamide], the inhibition at 0.5 µM was 89%.
`C=CC(=O)Nc1ccc(Sc2nc(Nc3cccc(OC)c3)ncc2C)cc1` [Compound 235, N-(4-(2-(3-methoxyphenylao)-5-methylpyrimidin-4-ylthio)phenyl)acrylamide] gave an inhibition at 0.5 µM of 79%.
For `N#Cc1nnnn1Cc1ccc(Sc2ccnc(Nc3ccc(N4CCOCC4)cc3)n2)cc1` [Compound 155, 1-(4-(2-(4-morpholinophenylao)pyrimidin-4-ylthio)benzyl)-1H-tetrazole-5-carbonitrile], the inhibition at 0.5 µM was 86%.
In the case of `C=CC(=O)Nc1ccc(Sc2nc(Nc3ccc(N4CCOCC4)cc3)ncc2C)c(C)c1` [Compound 163, N-(3-methyl-4-(5-methyl-2-(4-morpholinophenylao)pyrimidin-4-ylthio)phenyl)acrylamide], the inhibition at 0.5 µM is reported as 85%.
Work on `C=CC(=O)Nc1ccc(Sc2nc(Nc3cccc(NS(C)(=O)=O)c3)ncc2C)cc1` [Compound 288, N-(4-(5-methyl-2-(3-(methylsulfonamido)phenylao)pyrimidin-4-ylthio)phenyl)acrylamide] yielded an inhibition at 0.5 µM of 100%.
Compound `C=CC(=O)Nc1ccc(Sc2nc(Nc3cccc(N4CCOCC4)c3)ncc2C)cc1` [Compound 237, N-(4-(5-methyl-2-(3-morpholinophenylao)pyrimidin-4-ylthio)phenyl)acrylamide] has an inhibition at 0.5 µM of 92%.
`C=CC(=O)NCc1ccc(Sc2ccnc(Nc3ccc(N4CCOCC4)cc3)n2)cc1` [Compound 111, N-(4-(2-(4-morpholinophenylamino)pyrimidin-4-ylthio)benzyl)acrylamide] gave an inhibition at 0.5 µM of 100%.
`C=CC(=O)Nc1cccc(Sc2ccnc(Nc3ccc(N4CCOCC4)cc3)n2)c1` [Compound 23, N-(3-(2-(4-morpholinophenylamino)pyrimidin-4-ylthio)phenyl)acrylamide] gave an inhibition at 0.5 µM of 100%.
For `C=CC(=O)N(C)c1ccc(Sc2nc(Nc3ccc(N4CCOCC4)cc3)ncc2C)cc1` [Compound 173, N-methyl-N-(4-(5-methyl-2-(4-morpholinophenylao)pyrimidin-4-ylthio)phenyl)acrylamide], the inhibition at 0.5 µM was 94%.
`C=CC(=O)Nc1ccc(Sc2ccnc(Nc3ccc(N4CCOCC4)cc3)n2)cc1OC` [Compound 123, N-(2-methoxy-4-(2-(4-morpholinophenylao)pyrimidin-4-ylthio)phenyl)acrylamide] gave an inhibition at 0.5 µM of 100%.
For `Cc1cnc(Nc2ccc(N3CCOCC3)cc2)nc1Sc1ccc(N2C(=O)CSCC2=O)cc1` [Compound 231, 4-(4-(5-methyl-2-(4-morpholinophenylao)pyrimidin-4-ylthio)phenyl)thiomorpholine-3,5-dione], the inhibition at 0.5 µM was 99%.
`C=CC(=O)Nc1ccc(Sc2nc(Nc3ccc(C4CCN(C)CC4)cc3)ncc2C)cc1` [Compound 246, N-(4-(5-methyl-2-(4-(1-methylpiperidin-4-yl)phenylao)pyrimidin-4-ylthio)phenyl)acrylamide] was tested, and the inhibition at 0.5 µM was 98%.
`O=C(/C=C/Cl)Nc1cccc(Sc2ccnc(Nc3ccc(N4CCOCC4)cc3)n2)c1` [Compound 340, (E)-3-chloro-N-(3-(2-(4-morpholinophenylao)pyrimidin-4-ylthio)phenyl)acrylamide] showed an inhibition at 0.5 µM of 92%.
`C=CC(=O)Nc1cccc(Sc2ccnc(Nc3cccc(N4CCOCC4)c3)n2)c1` [Compound 110, N-(3-(2-(3-morpholinophenylao)pyrimidin-4-ylthio)phenyl)acrylamide] gave an inhibition at 0.5 µM of 100%.
Work on `C=CC(=O)Nc1ccc(Sc2ccnc(Nc3cccc(N4CCOCC4)c3)n2)cc1` [Compound 77, N-(4-(2-(3-morpholinophenylao)pyrimidin-4-ylthio)phenyl)acrylamide] yielded an inhibition at 0.5 µM of 100%.
In the case of `C=CC(=O)Nc1ccc(Sc2nc(Nc3ccc(OC)c(OC)c3)ncc2C)cc1` [Compound 241, N-(4-(2-(3,4-dimethoxyphenylao)-5-methylpyrimidin-4-ylthio)phenyl)acrylamide], the inhibition at 0.5 µM is reported as 92%.
With `N#Cc1nnn(Cc2ccc(Sc3ccnc(Nc4ccc(N5CCOCC5)cc4)n3)cc2)n1` [Compound 156, 2-(4-(2-(4-morpholinophenylao)pyrimidin-4-ylthio)benzyl)-2H-tetrazole-5-carbonitrile] the inhibition at 0.5 µM was 83%.
With `C=CC(=O)Nc1ccc(Sc2nc(Nc3ccc(N4CCN(C)CC4)cc3)ncc2C)cc1` [Compound 239, N-(4-(5-methyl-2-(4-(4-methylpiperazin-1-yl)phenylao)pyrimidin-4-ylthio)phenyl)acrylamide] the inhibition at 0.5 µM was 99%.
`C=CC(=O)Nc1ccc(Sc2ccnc(Nc3ccc(S(N)(=O)=O)c(OC)c3)n2)cc1` [Compound 374, N-(4-(2-(3-methoxy-4-sulfamoylphenylao)pyrimidin-4-ylthio)phenyl)acrylamide] showed an inhibition at 0.5 µM of 91%.
Compound `C=CC(=O)Nc1ccc(Sc2nc(Nc3ccc(NS(C)(=O)=O)cc3)ncc2C)cc1` [Compound 285, N-(4-(5-methyl-2-(4-(methylsulfonamido)phenylao)pyrimidin-4-ylthio)phenyl)acrylamide] has an inhibition at 0.5 µM of 98%.
Compound `C=CC(=O)Nc1ccc(Sc2nc(Nc3ccc(N4CCOCC4)c(OC)c3)ncc2C)cc1` [Compound 248, N-(4-(2-(3-methoxy-4-morpholinophenylao)-5-methylpyrimidin-4-ylthio)phenyl)acrylamide] has an inhibition at 0.5 µM of 91%.
In the case of `C=CC(=O)NCc1cccc(Sc2ccnc(Nc3ccc(N4CCOCC4)cc3)n2)c1` [Compound 112, N-(3-(2-(4-morpholinophenylamino)pyrimidin-4-ylthio)benzyl)acrylamide], the inhibition at 0.5 µM is reported as 100%.
Compound `C=CC(=O)Nc1ccc(Sc2nc(Nc3cccc(N4CCOCC4)c3)ncc2F)cc1` [Compound 267, N-(4-(5-fluoro-2-(3-morpholinophenylao)pyrimidin-4-ylthio)phenyl)acrylamide] has an inhibition at 0.5 µM of 89%.
`C=CC(=O)Nc1cccc(Nc2nccc(Sc3ccc(OC)cc3)n2)c1` [Compound 42, N-(3-(4-(4-methoxyphenylthio)pyrimidin-2-ylao)phenyl)acrylamide] showed an inhibition at 0.5 µM of 100%.
